The record followed here is ChEMBL document CHEMBL1153777, “Substituted benzothiadizine inhibitors of Hepatitis C virus polymerase” (Bioorg Med Chem Lett, 2009).

For data set [1], the system named is Hepatitis C virus. The data set is described as follows: Inhibition of HCV1b Cdelta-21-truncated NS5B by enzymatic assay. Format: functional, Hepatitis C virus subtype 1b.
Data set [2] deals with Hepatitis C virus. The data set is described as follows: Antiviral activity against HCV 1b after 72 hrs by replicon assay. Format: functional, organism-based, Hepacivirus hominis. As to conditions: genotype 1b.
Data set [3] has as its system Hepatitis C virus. The data set is described as follows: Antiviral activity against HCV 1b after 72 hrs by replicon assay in presence of HSA and AAG. As to conditions: genotype 1b. Format: functional, organism-based, Hepacivirus hominis. Background: Replicon systems follow genome replication, usually without infectious particles.
The nature of data set [4]: Half life in rat at 4 mg/kg, po and 4 mg/kg, iv. Format: ADME, organism-based. As to conditions: in vivo.
Another data set has as its target Cytochrome P450 2C9 (Homo sapiens, UniProt P11712). The data set can be described thus: Inhibition of CYP2C9. Format: ADME.
The species named for the next data set is Homo sapiens. The data set can be described thus: Protein binding in human plasma by equilibrium dialysis. As to conditions: read-out: PPB (converted). For orientation: In equilibrium dialysis only unbound substance equilibrates across the membrane.
The nature of data set [5]: Bioavailability in rat at 4 mg/kg, po and 4 mg/kg, iv. Format: ADME, organism-based. As to conditions: in vivo.

Chain of Cytochrome P450 2C9 (P11712 whole entry): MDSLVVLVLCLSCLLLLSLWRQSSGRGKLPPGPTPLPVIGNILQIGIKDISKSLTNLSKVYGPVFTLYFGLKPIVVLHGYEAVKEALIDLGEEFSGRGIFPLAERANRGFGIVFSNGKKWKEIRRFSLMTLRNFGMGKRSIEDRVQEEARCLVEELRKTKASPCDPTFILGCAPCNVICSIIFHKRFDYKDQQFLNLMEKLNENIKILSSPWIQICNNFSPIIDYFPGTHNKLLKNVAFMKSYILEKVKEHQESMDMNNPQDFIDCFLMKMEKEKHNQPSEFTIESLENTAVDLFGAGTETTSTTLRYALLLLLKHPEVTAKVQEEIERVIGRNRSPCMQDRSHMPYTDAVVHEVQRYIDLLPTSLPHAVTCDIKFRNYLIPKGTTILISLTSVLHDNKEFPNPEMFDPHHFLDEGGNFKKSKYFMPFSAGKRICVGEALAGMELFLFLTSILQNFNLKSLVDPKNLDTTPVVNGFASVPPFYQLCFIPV

On to `CC(C)CCn1c(=O)c(C2=NS(=O)(=O)c3cc(OCC#N)ccc3N2)c(O)c2ccccc21`, for which the figures for the IC50 in the data set on Hepatitis C virus [1] and in the data set with Hepatitis C virus [2] were 7 nM and 81 nM, respectively.
For `COC(=O)Cc1ccc2c(c1)S(=O)(=O)N=C(c1c(O)c3ccccc3n(CCC(C)C)c1=O)N2` the same measures were 23 nM and 815 nM.
For the compound `CC(C)CCn1c(=O)c(C2=NS(=O)(=O)c3cc(C#N)ccc3N2)c(O)c2ccccc21`, the IC50 with Hepatitis C virus [1] stood at 57 nM; in the data set with Hepatitis C virus [2], 486 nM.
For `CC(C)(Oc1ccc2c(c1)S(=O)(=O)N=C(c1c(O)c3cc(F)ccc3n(CCC3CC3)c1=O)N2)C(=O)O` the same measures were 22 nM and 3740 nM.
With `NC(=O)CCc1ccc2c(c1)S(=O)(=O)N=C(c1c(O)c3cc(F)ccc3n(CCC3CC3)c1=O)N2`, the IC50 in the data set on Hepatitis C virus [3] is over 50000 nM; in the data set on Hepatitis C virus [1] it was 5 nM; with Hepatitis C virus [2], 208 nM.
`Cc1ccc2c(c1)S(=O)(=O)N=C(c1c(O)c3ccccc3n(CCC(C)C)c1=O)N2`: the IC50 in the data set on Hepatitis C virus [1] was 50 nM; in the data set with Hepatitis C virus [2], 1780 nM.
In the case of `COc1ccc2c(c1)S(=O)(=O)N=C(c1c(O)c3cc(F)ccc3n(CCC3CC3)c1=O)N2`, the IC50 is over 50000 nM with Hepatitis C virus [3], 24 nM in the data set with Hepatitis C virus [1] and 342 nM in the data set with Hepatitis C virus [2].
For `CC(C)CCn1c(=O)c(C2=NS(=O)(=O)c3cc(Br)ccc3N2)c(O)c2ccccc21`, the IC50 turned out to be 173 nM with Hepatitis C virus [1] and 5140 nM with Hepatitis C virus [2].
As for `C[C@H](Oc1ccc2c(c1)S(=O)(=O)N=C(c1c(O)c3cc(F)ccc3n(CCC3CC3)c1=O)N2)C(N)=O`, the values for the 50% inhibitory concentration (IC50) with Hepatitis C virus [3], in the data set on Hepatitis C virus [1] and in the data set with Hepatitis C virus [2] were 50000 nM, 12 nM and 4 nM, respectively.
As for `CC(C)CCn1c(=O)c(C2=NS(=O)(=O)c3cc(CCN)ccc3N2)c(O)c2ccccc21`, the 50% inhibitory concentration (IC50) in the data set with Hepatitis C virus [1] came to 142 nM; in the data set on Hepatitis C virus [2], 568 nM.
For `CC(C)CCn1c(=O)c(C2=NS(=O)(=O)c3cc(N(C)C)ccc3N2)c(O)c2ccccc21` the same measures were 142 nM and 1250 nM.
With `CC(C)(Oc1ccc2c(c1)S(=O)(=O)N=C(c1c(O)c3cc(F)ccc3n(CCC3CC3)c1=O)N2)C(N)=O`, the IC50 was found to be 5360 nM in the data set with Hepatitis C virus [3], 9 nM in the data set with Hepatitis C virus [1] and 272 nM in the data set on Hepatitis C virus [2].
In the same order, the values of `NC(=O)/C=C/c1ccc2c(c1)S(=O)(=O)N=C(c1c(O)c3cc(F)ccc3n(CCC3CC3)c1=O)N2` are 50000 nM, 202 nM and 39 nM.
As to `O=c1c(C2=NS(=O)(=O)c3cc(OCn4cnnn4)ccc3N2)c(O)c2cc(F)ccc2n1CCC1CC1`, the IC50 in the data set on Hepatitis C virus [1] stood at 6 nM; with Hepatitis C virus [2], 2000 nM.
In the same order, the values of `CC(=O)c1ccc2c(c1)S(=O)(=O)N=C(c1c(O)c3ccccc3n(CCC(C)C)c1=O)N2` are 127 nM and 5200 nM.
In the same order, the values of `CC(C)CCn1c(=O)c(C2=NS(=O)(=O)c3cc(CC(=O)O)ccc3N2)c(O)c2ccccc21` are 8 nM and 1600 nM.
For the compound `CC(C)CCn1c(=O)c(C2=NS(=O)(=O)c3cc(I)ccc3N2)c(O)c2ccccc21`, the IC50 in the data set with Hepatitis C virus [1] was over 10000 nM.
In turn, `NC(=O)COc1ccc2c(c1)S(=O)(=O)NC(c1c(O)c3cc(F)ccc3n(CCC3CC3)c1=O)=N2` showed a half-life in data set [4] of 1 h. For the same compound, the IC50 on Cytochrome P450 2C9 was 5400 nM; with Hepatitis C virus [3] it was 1480 nM; in the data set on Hepatitis C virus [1] it was under 5 nM; with Hepatitis C virus [2], 2 nM. For the same compound, the fraction unbound in the data set filed under Homo sapiens was 0.001. In data set [5], the bioavailability is 33%.
Consider `O=C(O)COc1ccc2c(c1)S(=O)(=O)N=C(c1c(O)c3cc(F)ccc3n(CCC3CC3)c1=O)N2`, for which the half-maximal inhibitory concentration (IC50) in the data set with Hepatitis C virus [1] is under 5 nM; with Hepatitis C virus [2] it was 2300 nM.
In the same order, the values of `COC(=O)c1ccc2c(c1)S(=O)(=O)N=C(c1c(O)c3ccccc3n(CCC(C)C)c1=O)N2` are 65 nM and 2620 nM.
Consider `CC(C)CCn1c(=O)c(C2=NS(=O)(=O)c3cc(N)ccc3N2)c(O)c2ccccc21`, for which the IC50 amounted to 45000 nM in the data set on Hepatitis C virus [3], 13 nM in the data set on Hepatitis C virus [1] and 218 nM with Hepatitis C virus [2].
For `O=c1c(C2=NS(=O)(=O)c3cc(O)ccc3N2)c(O)c2cc(F)ccc2n1CCC1CC1` the same measures were 50000 nM, under 5 nM and 57 nM.
Take `CNC(=O)COc1ccc2c(c1)S(=O)(=O)N=C(c1c(O)c3cc(F)ccc3n(CCC3CC3)c1=O)N2`: the IC50 was 4740 nM with Hepatitis C virus [3], under 5 nM in the data set on Hepatitis C virus [1] and 9 nM in the data set with Hepatitis C virus [2].
Turning to `CC(C)CCn1c(=O)c(C2=NS(=O)(=O)c3cc(C(=O)N(C)C)ccc3N2)c(O)c2ccccc21`, the IC50 in the data set with Hepatitis C virus [1] was 102 nM; in the data set with Hepatitis C virus [2], over 20000 nM.
Regarding `CC(C)CCn1c(=O)c(C2=NS(=O)(=O)c3cc(CCN(C)C)ccc3N2)c(O)c2ccccc21`, in the data set with Hepatitis C virus [1], the IC50 is 685 nM.
Regarding `N#CCOc1ccc2c(c1)S(=O)(=O)N=C(c1c(O)c3cc(F)ccc3n(CCC3CC3)c1=O)N2`, the IC50 in the data set with Hepatitis C virus [3] was 2390 nM; with Hepatitis C virus [1], under 5 nM; in the data set on Hepatitis C virus [2], 8 nM.
As to `CN(C)C(=O)COc1ccc2c(c1)S(=O)(=O)N=C(c1c(O)c3cc(F)ccc3n(CCC3CC3)c1=O)N2`, the IC50 with Hepatitis C virus [1] was 12 nM; with Hepatitis C virus [2] it was 211 nM.
With `CC(C)CCn1c(=O)c(C2=NS(=O)(=O)c3cc(Cl)ccc3N2)c(O)c2ccccc21`, the IC50 in the data set with Hepatitis C virus [3] was over 50000 nM; in the data set on Hepatitis C virus [1] it was 76 nM; in the data set on Hepatitis C virus [2], 2320 nM.
As to `NC(=O)OCc1ccc2c(c1)S(=O)(=O)N=C(c1c(O)c3cc(F)ccc3n(CCC3CC3)c1=O)N2`, the IC50 amounted to 36 nM in the data set on Hepatitis C virus [1] and 48 nM with Hepatitis C virus [2].
For `CC(C)CCn1c(=O)c(C2=NS(=O)(=O)c3cc(C(=O)O)ccc3N2)c(O)c2ccccc21` the same measures were 45 nM and over 20000 nM.
`CC(C)CCn1c(=O)c(C2=NS(=O)(=O)c3cc(C(N)=O)ccc3N2)c(O)c2ccccc21`: the IC50 in the data set on Hepatitis C virus [1] was 6 nM; in the data set on Hepatitis C virus [2] it was 383 nM.
With `CC(C)CCn1c(=O)c(C2=NS(=O)(=O)c3cc(CC#N)ccc3N2)c(O)c2cc(F)ccc21`, the IC50 is 8000 nM in the data set with Hepatitis C virus [3], 5 nM in the data set on Hepatitis C virus [1] and 29 nM in the data set with Hepatitis C virus [2].
In the same order, the values of `CC(C)CCn1c(=O)c(C2=NS(=O)(=O)c3cc(CC(N)=O)ccc3N2)c(O)c2ccccc21` are 2650 nM, 6 nM and 15 nM.
On to `CC(C)CCn1c(=O)c(C2=NS(=O)(=O)c3cc(O)ccc3N2)c(O)c2ccccc21`, for which the IC50 in the data set with Hepatitis C virus [1] is 30 nM; in the data set with Hepatitis C virus [2], over 20000 nM.
As for `CC(C)CCn1c(=O)c(C2=NS(=O)(=O)c3cc(CC(N)=O)ccc3N2)c(O)c2cc(F)ccc21`, the IC50 in the data set with Hepatitis C virus [3] is 3100 nM; in the data set on Hepatitis C virus [1] it was 18 nM; in the data set on Hepatitis C virus [2], 13 nM.
As for `CC(C)CCn1c(=O)c(C2=NS(=O)(=O)c3cc([N+](=O)[O-])ccc3N2)c(O)c2ccccc21`, the half-inhibitory concentration (IC50) in the data set with Hepatitis C virus [1] was 238 nM; with Hepatitis C virus [2], over 20000 nM.
`CC(C)CCn1c(=O)c(C2=NS(=O)(=O)c3cc(F)ccc3N2)c(O)c2ccccc21`: the IC50 is 26 nM in the data set with Hepatitis C virus [1] and 334 nM in the data set with Hepatitis C virus [2].
`COc1ccc2c(c1)S(=O)(=O)N=C(c1c(O)c3ccccc3n(CCC(C)C)c1=O)N2`: the IC50 is 55 nM in the data set with Hepatitis C virus [1] and 1390 nM with Hepatitis C virus [2].
For the compound `C[C@@H](Oc1ccc2c(c1)S(=O)(=O)N=C(c1c(O)c3cc(F)ccc3n(CCC3CC3)c1=O)N2)C(N)=O`, in data set [4], the half-life is 0.7 h. The IC50 is 1700 nM at Cytochrome P450 2C9, 1020 nM in the data set on Hepatitis C virus [3], under 5 nM in the data set on Hepatitis C virus [1] and 3 nM with Hepatitis C virus [2]. Moreover, in the data set filed under Homo sapiens, the fraction unbound is 0.002. The compound further gave a bioavailability in data set [5] of 35%.
For the compound `O=c1c(C2=NS(=O)(=O)c3cc(CO)ccc3N2)c(O)c2cc(F)ccc2n1CCC1CC1`, the IC50 was determined as 17 nM in the data set on Hepatitis C virus [1] and 233 nM in the data set on Hepatitis C virus [2].
In data set [4], `O=c1c(C2=Nc3ccccc3S(=O)(=O)N2)c(O)c2cc(F)ccc2n1CCC1CC1` gave a half-life of 3 h. Besides, the results for the IC50 on Cytochrome P450 2C9, in the data set on Hepatitis C virus [3] and with Hepatitis C virus [2] were 840 nM, 24500 nM and 38 nM, respectively. Also, in data set [5], the bioavailability is 44%.

The term IC50 denotes the concentration that gives 50% inhibition. The term half-life denotes how long it takes for the measured level to halve. A higher half-life goes with slow decline. The bioavailability is the share of a dose that reaches the circulation, judged against a reference dose that is usually intravenous.
